This passage reports inhibition and IC50 results from US9062046B2, “Substituted imidazoquinoline derivatives as kinase inhibitors” (Piramal Enterprises Limited, priority 2011, dated 2015).

Experiment [1] deals with PC3 (prostate cell line). Kind of experiment: Cytotoxicity assay (propidium iodide assay), PC3. It counts as cell-based. The note with it: Homo sapiens, PC-3, PC3 cells, 48 h treatment. An outline of the steps: (§1)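 A2780 and PC3 cells, 3000/well, were treated with compound for 48 h after 18-24 h attachment. After washing, propidium iodide 7 μg/ml was added, followed by freeze-thaw at −70 °C and a fluorescence read. Viability was taken relative to untreated wells, with IC50 derived from the curves.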

The test system of experiment [2] is A2780 (ovarian cell line). As to the kind of experiment: Cytotoxicity assay (propidium iodide assay), A2780. It is filed as cell-based. The note with it: Homo sapiens, A2780 cells, 48 h treatment. The method in brief: as §1

What is called inhibition is how much of the control response was suppressed. A high value points to a strong effect. For the molecule `COc1ncc(-c2ccc3ncc4c(c3c2)n(-c2ccc(C(C)(C)C#N)cc2)c(=NC#N)n4C)cc1NS(C)(=O)=O` [Example 127, N-(5-(2-(cyanoimino)-1-(4-(2-cyanopropan-2-yl)phenyl)-3-methyl-2,3-dihydro-1H-imidazo[4,5-c]quinolin-8-yl)-2-methoxypyridin-3-yl)methanesulfonamide], the inhibition at 1 µM in experiment [1] was 30 to 70%; in experiment [2], not below 70%.
In the same order, the values of `COc1ccc(-n2c(=NC#N)n(C)c3cnc4ccc(-c5ccc(O)cc5)cc4c32)cn1` [Example 46, N-(8-(4-hydroxyphenyl)-1-(6-methoxypyridin-3-yl)-3-methyl-1H-imidazo[4,5-c]quinolin-2(3H)-ylidene)cyanamide] are 30 to 70% and not below 70%.
For `COc1ccc(-n2c(=NC#N)n(C)c3cnc4ccc(-c5cccc(C(F)(F)F)c5)cc4c32)cn1` [Example 41, N-(1-(6-methoxypyridin-3-yl)-3-methyl-8-(3-(trifluoromethyl)phenyl)-1H-imidazo[4,5-c]quinolin-2(3H)-ylidene)cyanamide], the inhibition at 1 µM in experiment [1] and in experiment [2] was 30 to 70% throughout.
In the case of `CCCC(CCC)C(=O)Nc1ncc(-c2ccc3ncc4c(c3c2)n(-c2ccc(C(C)(C)C#N)nc2)c(=NC#N)n4C)cc1C(F)(F)F` [Example 136, N-(5-(2-(cyanoimino)-1-(6-(2-cyanopropan-2-yl)pyridin-3-yl)-3-methyl-2,3-dihydro-1H-imidazo[4,5-c]quinolin-8-yl)-3-(trifluoromethyl)pyridin-2-yl)-2-propylpentanamide], the results for the inhibition at 1 µM in experiment [1] and in experiment [2] were 30 to 70% and not below 70%, respectively.
For `COc1ccc(-n2c(=NC#N)n(C)c3cnc4ccc(-c5ccc6cccnc6c5)cc4c32)cn1` [Example 26, N-(1-(6-methoxypyridin-3-yl)-3-methyl-8-(quinolin-7-yl)-1H-imidazo[4,5-c]quinolin-2(3H)-ylidene)cyanamide], in that order: 30 to 70% and not below 70%.
In the same order, the values of `COc1ccc(-n2c(=NC#N)n(C)c3cnc4ccc(-c5cnccc5F)cc4c32)cn1` [Example 39, N-(8-(4-fluoropyridin-3-yl)-1-(6-methoxypyridin-3-yl)-3-methyl-1H-imidazo[4,5-c]quinolin-2(3H)-ylidene)cyanamide] are 30 to 70% and 30 to 70%.
The term IC50 denotes the midpoint of a concentration-inhibition curve. A high value points to weaker potency in that assay. With `Cn1c(=NC#N)n(-c2ccc(OC(F)(F)F)cc2)c2c3cc(-c4ccncc4)ccc3ncc21` [Example 109, N-(3-methyl-8-(pyridin-4-yl)-1-(4-(trifluoromethoxy)phenyl)-1H-imidazo[4,5-c]quinolin-2(3H)-ylidene)cyanamide], the IC50 in experiment [1] is 0.5 to 2 µM; in experiment [2] it was not above 0.5 µM.
`COc1ccc(-n2c(=NC#N)n(C)c3cnc4ccc(-c5cnc(NC(=O)OC(C)(C)C)c(C(F)(F)F)c5)cc4c32)cn1` [Example 123, tert-butyl 5-(2-(cyanoimino)-1-(6-methoxypyridin-3-yl)-3-methyl-2,3-dihydro-1H-imidazo[4,5-c]quinolin-8-yl)-3-(trifluoromethyl)pyridin-2-ylcarbamate]: the IC50 in experiment [1] and in experiment [2] was not above 0.5 µM throughout.
With `Cn1c(=NC#N)n(-c2ccc(C(C)(C)C#N)nc2)c2c3cc(-c4ccc(O)cc4)ccc3ncc21` [Example 50, N-(1-(6-(2-cyanopropan-2-yl)pyridin-3-yl)-8-(4-hydroxyphenyl)-3-methyl-1H-imidazo[4,5-c]quinolin-2(3H)-ylidene)cyanamide], the inhibition at 1 µM in experiment [1] is 30 to 70%; in experiment [2], not below 70%.
Turning to `Cn1c(=NC#N)n(-c2ccc(C(C)(C)C#N)cc2)c2c3cc(-c4ccc5cc[nH]c5c4)ccc3ncc21` [Example 94, N-(1-(4-(2-cyanopropan-2-yl)phenyl)-8-(1H-indol-6-yl)-3-methyl-1H-imidazo[4,5-c]quinolin-2(3H)-ylidene)cyanamide], the IC50 in experiment [1] and in experiment [2] was not above 0.5 µM each time.
With `Cn1c(=NC#N)n(-c2ccc(C(C)(C)C#N)cc2)c2c3cc(-c4cnc(N)c(C(F)(F)F)c4)ccc3ncc21` [Example 6, N-(8-(6-amino-5-(trifluoromethyl)pyridin-3-yl)-1-(4-(2-cyanopropan-2-yl)phenyl)-3-methyl-1H-imidazo[4,5-c]quinolin-2(3H)-ylidene)cyanamide], the IC50 in experiment [1] and in experiment [2] was not above 0.5 µM each time.
For `CC(=O)N(C(C)=O)c1ncc(-c2ccc3ncc4c(c3c2)n(-c2ccc(C(C)(C)C#N)cc2)c(=NC#N)n4C)cc1C(F)(F)F` [Example 131, N-acetyl-N-(5-(2-(cyanoimino)-1-(4-(2-cyanopropan-2-yl)phenyl)-3-methyl-2,3-dihydro-1H-imidazo[4,5-c]quinolin-8-yl)-3-(trifluoromethyl)pyridin-2-yl)acetamide], the inhibition at 1 µM in experiment [1] and in experiment [2] was 30 to 70% throughout.
Regarding `COc1ccc(-n2c(=NC#N)n(C)c3cnc4ccc(-c5ccc(SC(C)C)cc5)cc4c32)cn1` [Example 37, N-(8-(4-(isopropylthio)phenyl)-1-(6-methoxypyridin-3-yl)-3-methyl-1H-imidazo[4,5-c]quinolin-2(3H)-ylidene)cyanamide], the inhibition at 1 µM in experiment [1] is less than 30%; in experiment [2], 30 to 70%.
As to `COc1ccccc1-c1ccc2ncc3c(c2c1)n(-c1ccc(C(C)(C)C#N)nc1)c(=NC#N)n3C` [Example 53, N-(1-(6-(2-cyanopropan-2-yl)pyridin-3-yl)-8-(2-methoxyphenyl)-3-methyl-1H-imidazo[4,5-c]quinolin-2(3H)-ylidene)cyanamide], the inhibition at 1 µM was less than 30% in experiment [1] and 30 to 70% in experiment [2].
Turning to `COc1ccc(-n2c(=NC#N)n(C)c3cnc4ccc(-c5cncc6ccccc56)cc4c32)cn1` [Example 35, N-(8-(isoquinolin-4-yl)-1-(6-methoxypyridin-3-yl)-3-methyl-1H-imidazo[4,5-c]quinolin-2(3H)-ylidene)cyanamide], the values for the inhibition at 1 µM in experiment [1] and in experiment [2] were 30 to 70% and not below 70%, respectively.
For `Cn1c(=NC#N)n(-c2ccc(C(C)(C)C#N)nc2)c2c3cc(-c4cc(F)cc(F)c4)ccc3ncc21` [Example 63, N-(1-(6-(2-cyanopropan-2-yl)pyridin-3-yl)-8-(3,5-difluorophenyl)-3-methyl-1H-imidazo[4,5-c]quinolin-2(3H)-ylidene)cyanamide], in that order: less than 30% and 30 to 70%.
`CC(=O)Nc1cc(C)c(-c2ccc3ncc4c(c3c2)n(-c2ccc(C(C)(C)C#N)nc2)c(=NC#N)n4C)cn1` [Example 128, N-(5-(2-(cyanoimino)-1-(6-(2-cyanopropan-2-yl)pyridin-3-yl)-3-methyl-2,3-dihydro-1H-imidazo[4,5-c]quinolin-8-yl)-4-methylpyridin-2-yl)acetamide]: the inhibition at 1 µM is less than 30% in experiment [1] and 30 to 70% in experiment [2].
In the case of `COc1ccc(-n2c(=NC#N)n(C)c3cnc4ccc(-c5ccc(C)cc5)cc4c32)cn1` [Example 44, N-(1-(6-methoxypyridin-3-yl)-3-methyl-8-p-tolyl-1H-imidazo[4,5-c]quinolin-2(3H)-ylidene)cyanamide], the inhibition at 1 µM in experiment [1] is less than 30%; in experiment [2], 30 to 70%.
Regarding `COc1ncc(-c2ccc3ncc4c(c3c2)n(-c2ccc(C(C)(C)C#N)cc2)c(=NC#N)n4C)cc1N` [Example 84, N-(8-(5-amino-6-methoxypyridin-3-yl)-1-(4-(2-cyanopropan-2-yl)phenyl)-3-methyl-1H-imidazo[4,5-c]quinolin-2(3H)-ylidene)cyanamide], the inhibition at 1 µM in experiment [1] and in experiment [2] was not below 70% in each case.
Regarding `COc1ccc(-n2c(=NC#N)n(C)c3cnc4ccc(-c5cnc6ccccc6c5)cc4c32)c(OC)c1` [Example 100, N-(1-(2,4-dimethoxyphenyl)-3-methyl-8-(quinolin-3-yl)-1H-imidazo[4,5-c]quinolin-2(3H)-ylidene)cyanamide], the half-maximal inhibitory concentration (IC50) in experiment [1] and in experiment [2] was not above 0.5 µM throughout.
As for `Cn1c(=NC#N)n(-c2cncc(-c3ccccc3)c2)c2c3cc(-c4cnc(N)c(C(F)(F)F)c4)ccc3ncc21` [Example 92, N-(8-(6-amino-5-(trifluoromethyl)pyridin-3-yl)-3-methyl-1-(5-phenylpyridin-3-yl)-1H-imidazo[4,5-c]quinolin-2(3H)-ylidene)cyanamide], the IC50 in experiment [1] and in experiment [2] was not above 0.5 µM throughout.
Consider `Cn1c(=NC#N)n(-c2ccc(C(C)(C)C#N)cc2)c2c3cc(-c4cc(C(F)(F)F)ccc4F)ccc3ncc21` [Example 87, N-(1-(4-(2-cyanopropan-2-yl)phenyl)-8-(2-fluoro-5-(trifluoromethyl)phenyl)-3-methyl-1H-imidazo[4,5-c]quinolin-2(3H)-ylidene)cyanamide], for which the values for the inhibition at 1 µM in experiment [1] and in experiment [2] were less than 30% and 30 to 70%, respectively.
In the same order, the values of `Cn1c(=NC#N)n(-c2ccc(C(C)(C)C#N)nc2)c2c3cc(-c4ccc(C(F)(F)F)cc4)ccc3ncc21` [Example 68, N-(1-(6-(2-cyanopropan-2-yl)pyridin-3-yl)-3-methyl-8-(4-(trifluoromethyl)phenyl)-1H-imidazo[4,5-c]quinolin-2(3H)-ylidene)cyanamide] are less than 30% and 30 to 70%.
As to `COc1ncc(-c2ccc3ncc4c(c3c2)n(-c2ccc(C(C)(C)C#N)nc2)c(=NC#N)n4C)cc1NS(C)(=O)=O` [Example 126, N-(5-(2-(cyanoimino)-1-(6-(2-cyanopropan-2-yl)pyridin-3-yl)-3-methyl-2,3-dihydro-1H-imidazo[4,5-c]quinolin-8-yl)-2-methoxypyridin-3-yl)methane sulfonamide], the 50% inhibitory concentration (IC50) in experiment [1] and in experiment [2] was not above 0.5 µM each time.
